According to patent publication US7674826B2, “Use of a nutraceutical compositions in animal feed” (DSM IP Assets B.V., priority 2006, dated 2010):

What was measured:
[1] = system: growing-fattening pig; assay: Bone resistance: maximal breaking force of metacarpal diaphysis sections under compression, after long-term feeding; format: in vivo; conditions: for Resistance (Newton at the breaking point), right metacarpals: mean ± SD
Description: The term “bone resistance” as used herein denotes the maximal force in measured in Newton (N) necessary to break the bone determined by a compression machine.
(§1) Environment humidity percentage throughout the experiment was 50%. […] Both diets were in mash form.
(§2) All the diets were given in a mash form.
(§3) At the end of the observation all the animals were slaughtered after electronarcosis for the determination of the bone resistance and mineralization. The collected bones were the right internal and external metacarpal. Samples were prepared from each of the collected bones immediately after slaughter. After careful removal of the soft tissue, a diaphysis section was obtained by sawing each bone. The obtained sections of about 3.5-cm long were immediately subjected to compression in order to determine the force in Newton necessary to break them (maximal-breaking force at the fracture point). The measurements were performed with a LR10K compression machine, using a XLC/10K/A1 force captor and a compression device TH23-196/AL (Lloyd Instruments, Fareham, UK). The broken bones were then dried in a drying oven at 105° C. during 24 hours and the dry matter (DM) was used for the determination of ash content, which was measured after 48 h incineration at 550° C. in a muffle furnace.
(§4) Statistical treatment of the results involved the calculation of the mean and of the standard deviation as well as a two-factor hierarchical analysis of variance. The mathematical model was: Yijk=μ+Ai+Bij+Zijk, where μ is the mean, Ai is the diet effect, Bij is the combined effect of the diet and animal or pen and Zijk is the residual term. The analysis of variance was followed by a Duncan multiple range test when a significant Ai effect without Bij effect was observed (Statistical methods, 8th edition, Iowa University Press, Ames, Snedecor and Cochran, 1989). These calculations were performed using the Statistical Analysis System (SAS, 1990).

[2] = system: growing-fattening pig; assay: Bone mineralization: ash content of dried metacarpal bone after incineration, after long-term feeding; format: in vivo; conditions: for Mineralization (% of ash in DM), right metacarpals: mean ± SD of 32 measurements
Description: The term “bone mineralization” as used herein denotes the percentage of ash after incineration of the bone compared to the dried bone matter (DM). Dry matter is defined as the weight of the bone sample after 24 hour in a drying oven compared to the initial weight of the sample.
as §1, §2, §3, §4

[3] = system: pigs; conditions: diets with 0.5% or 1% benzoic acid, 32 + 91 days; statement covers all animals
Description: Room temperature was initially 27° C. and was lowered weekly by about 2° C. until 21-22° C.

[4] = group B2: 0% 32 days, then 1% benzoic acid 91 days
[5] = group C2: 0.5% 32 days, then 0.5% benzoic acid 91 days
[6] = group D2: 0.5% 32 days, then 1% benzoic acid 91 days

For `O=C(O)c1ccccc1` [benzoic acid], the “Bone resistance versus controls (in words)” value ([1]; all the supplemented groups (B2, C2, D2)) was “significantly increased”, the “Resistance (Newton at the breaking point), right metacarpals” value (“Resistance … right metacarpals” for short) ([1]; group B2: 0% benzoic acid in diet 32 days, then 1% for 91 days) was 625 ± 163^(2)bd Newton and the “Resistance … right metacarpals” value ([1]; group C2: 0.5% benzoic acid in diet 32 days, then 0.5% for 91 days) was 621 ± 172^(2)d Newton. For the same compound, the “Resistance … right metacarpals” value ([1]; group D2: 0.5% benzoic acid in diet 32 days, then 1% for 91 days) was 597 ± 192^(2)d Newton, the “Mineralization relative to controls (A2 = 100)” value [2, 4] was “(102)” and the “Mineralization (% of ash in DM), right metacarpals” value (shortened to “Mineralization (% of ash in DM)”) [2, 4] was 60.26 ± 1.31^(1)d % of ash in DM. The “Ash content of the bones versus controls (in words)” value ([2]; group C2 (0.5% benzoic acid throughout), P<0.07) was “numerically higher”, the “Mineralization relative to controls (A2 = 100)” value [2, 5] was “(102)” and the “Mineralization (% of ash in DM)” value [2, 5] was 60.06 ± 1.33^(1)cd* % of ash in DM. The “Mineralization relative to controls (A2 = 100)” value [2, 6] was “(102)”, the “Mineralization (% of ash in DM)” value [2, 6] was 60.14 ± 1.09^(1)d % of ash in DM and the “Ash content of the bones versus controls (in words)” value ([2]; groups B2 and D2 (1% benzoic acid during 91 days)) was “significantly higher”. For the same compound, the “Natural mortality during the experiment” value [3] was “no natural mortality was observed” and the “Symptoms of illness during the experiment” value [3] was “did not present any symptoms of illness”.
